Reference: US10494332B2, “Protein tyrosine phosphatases or SHP2 inhibitors and uses thereof” (Indiana University Research and Technology Corporation, priority 2015, dated 2019)
Where two headings read alike, the source gives them in different places.

Key:
Assay type in all cases: biochemical
[1] = target: T1, SHP2 (Homo sapiens, UniProt Q06124); assay: SHP2 phosphatase inhibition assay (pNPP); details: for IC50: read-out: IC50 SHP2
T1 sequence (Q06124 224-528): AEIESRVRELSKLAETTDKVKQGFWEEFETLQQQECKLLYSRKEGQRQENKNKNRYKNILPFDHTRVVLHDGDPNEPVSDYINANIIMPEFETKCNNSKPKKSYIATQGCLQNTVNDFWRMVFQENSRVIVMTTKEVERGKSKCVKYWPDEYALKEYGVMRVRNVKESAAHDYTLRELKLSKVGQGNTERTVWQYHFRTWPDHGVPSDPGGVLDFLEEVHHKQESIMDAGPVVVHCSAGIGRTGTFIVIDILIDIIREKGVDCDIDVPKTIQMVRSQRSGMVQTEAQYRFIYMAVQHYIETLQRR

[2] = target: T2, HePTP (Homo sapiens, UniProt P35236); assay: PTP inhibition assay (pNPP); details: […]; HePTP
T2 sequence (P35236 1-360): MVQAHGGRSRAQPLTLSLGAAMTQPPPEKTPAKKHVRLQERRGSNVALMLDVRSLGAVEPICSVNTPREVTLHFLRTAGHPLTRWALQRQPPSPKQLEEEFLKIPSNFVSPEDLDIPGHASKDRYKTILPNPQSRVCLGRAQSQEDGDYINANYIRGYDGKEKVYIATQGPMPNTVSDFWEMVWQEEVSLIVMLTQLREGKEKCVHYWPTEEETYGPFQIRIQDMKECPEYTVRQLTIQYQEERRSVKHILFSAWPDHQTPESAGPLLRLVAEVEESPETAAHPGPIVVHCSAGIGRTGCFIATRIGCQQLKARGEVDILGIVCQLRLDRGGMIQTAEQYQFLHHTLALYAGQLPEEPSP

[3] = target: T3, LMWPTP (Homo sapiens, UniProt P24666); assay: PTP inhibition assay (pNPP)
T3 sequence (P24666 1-158): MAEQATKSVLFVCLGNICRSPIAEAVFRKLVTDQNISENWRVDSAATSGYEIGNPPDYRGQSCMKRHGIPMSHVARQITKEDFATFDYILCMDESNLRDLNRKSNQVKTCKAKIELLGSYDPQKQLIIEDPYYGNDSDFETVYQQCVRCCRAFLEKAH

[4] = target: T4, LYP (Homo sapiens, UniProt Q9Y2R2); assay: PTP inhibition assay (pNPP); details: […]; LYP
T4 sequence (Q9Y2R2 1-807): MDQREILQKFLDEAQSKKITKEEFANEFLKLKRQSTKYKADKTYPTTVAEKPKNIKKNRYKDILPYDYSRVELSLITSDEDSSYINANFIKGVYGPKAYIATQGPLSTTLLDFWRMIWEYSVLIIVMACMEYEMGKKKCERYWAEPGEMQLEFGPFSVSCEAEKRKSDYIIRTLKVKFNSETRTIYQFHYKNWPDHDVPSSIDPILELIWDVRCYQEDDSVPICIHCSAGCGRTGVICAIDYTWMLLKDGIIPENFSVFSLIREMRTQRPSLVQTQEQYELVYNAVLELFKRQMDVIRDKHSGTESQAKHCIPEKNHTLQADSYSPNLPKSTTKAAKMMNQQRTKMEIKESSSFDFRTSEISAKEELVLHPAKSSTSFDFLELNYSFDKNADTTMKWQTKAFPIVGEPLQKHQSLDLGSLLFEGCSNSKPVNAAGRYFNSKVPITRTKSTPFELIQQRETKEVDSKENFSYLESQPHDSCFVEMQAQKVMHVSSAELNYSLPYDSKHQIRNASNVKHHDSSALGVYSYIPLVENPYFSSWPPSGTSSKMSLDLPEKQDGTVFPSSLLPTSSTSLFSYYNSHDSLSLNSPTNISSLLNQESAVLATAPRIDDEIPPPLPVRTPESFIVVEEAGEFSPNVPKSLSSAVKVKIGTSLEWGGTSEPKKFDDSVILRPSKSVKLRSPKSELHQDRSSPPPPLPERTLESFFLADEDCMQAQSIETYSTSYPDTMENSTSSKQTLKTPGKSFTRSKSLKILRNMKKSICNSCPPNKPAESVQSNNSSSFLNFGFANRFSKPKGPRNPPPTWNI

[5] = Example 9: SHP2 catalytic domain 20 nM, pNPP 3 mM, pH 7.0, 25° C.

O=C(Nc1nc2ccccc2s1)C(Br)(c1ccccc1)S(=O)(=O)O (stereo not drawn) [Compound L319-Br1-N15]
IC50 ([1]; […], SHP2): 13.2 µM
IC50 [2]: 0.2 µM

O=C(Nc1ccc(N2CCOCC2)cc1)C(c1cccc(F)c1)S(=O)(=O)O (stereo not drawn) [Compound L319-13-M68]
IC50 ([3]; […], LMWPTP): 27 µM
IC50 [4]: 10 µM
IC50 ([1]; […], SHP2): > 100 µM
IC50 [2]: 4.3 µM

Cc1c(Br)cc(NC(=O)C(=O)Nc2cccc(NC(=O)C(c3ccccc3)S(=O)(=O)O)c2)cc1Br (stereo not drawn) [Compound L319-22-M34]
IC50 ([1]; pNPP at Km, pH 7.0, 25° C.): 5.7 µM

O=C(O)C(=O)Nc1cccc(NC(=O)C(c2ccccc2)S(=O)(=O)O)c1 (stereo not drawn) [Lib-2, 2-oxo-2-((3-(2-phenyl-2-sulfoacetamido)phenyl)amino)acetic acid]
IC50 [1, 5]: > 50 µM

O=C(Nc1ccc(NC(=O)C(c2ccccc2)S(=O)(=O)O)cc1)c1ccc(-c2ccc(Cl)cc2Cl)o1 (stereo not drawn) [Compound L319-04-B34]
IC50 ([1]; pNPP at Km, pH 7.0, 25° C.): 7.9 µM

O=C(NNc1ccccc1)C(c1ccc(-c2ccccc2)cc1)S(=O)(=O)O (stereo not drawn) [Compound L319-16-N58]
IC50 ([3]; […], LMWPTP): 32 µM
IC50 [4]: 20 µM
IC50 ([1]; […], SHP2): 22 µM
IC50 [2]: 20 µM

O=C(O)C(=O)Nc1ccc(CNC(=O)C(c2ccccc2)S(=O)(=O)O)cc1 (stereo not drawn) [Lib-4, 2-oxo-2-((4-((2-phenyl-2-sulfoacetamido)methyl)phenyl)amino)acetic acid]
IC50 [1, 5]: > 50 µM

CC(C)CCNC(=O)C(c1ccc2ccccc2c1)S(=O)(=O)O (stereo not drawn) [Compound L319-14-N03]
IC50 ([3]; […], LMWPTP): > 100 µM
IC50 [4]: 11.6 µM
IC50 ([1]; […], SHP2): 74 µM
IC50 [2]: 24 µM

O=C(Nc1ccc(CNC(=O)C(c2ccccc2)S(=O)(=O)O)cc1)C(=O)Nc1ccccc1-c1nc2ccccc2[nH]1 (stereo not drawn) [Compound L319-24-M77]
IC50 ([1]; pNPP at Km, pH 7.0, 25° C.): 1.1 µM

O=C(N1CCC(c2ccc(Cl)c(Cl)c2)CC1)C(Br)(c1ccccc1)S(=O)(=O)O (stereo not drawn) [Compound L319-Br1-N47]
IC50 ([1]; […], SHP2): 22.8 µM
IC50 [2]: 26 µM

O=C(NNc1ccccc1[N+](=O)[O-])C(c1ccc(-c2ccccc2)cc1)S(=O)(=O)O (stereo not drawn) [Compound L319-16-N55]
IC50 ([3]; […], LMWPTP): 90 µM
IC50 [4]: 35 µM
IC50 ([1]; […], SHP2): 82 µM
IC50 [2]: 43 µM

O=C(Nc1ccc(CNC(=O)C(c2ccccc2)S(=O)(=O)O)cc1)C(=O)Nc1ccc(-c2cccs2)cc1 (stereo not drawn) [Compound L319-24-M74]
IC50 ([1]; pNPP at Km, pH 7.0, 25° C.): 1.34 µM

O=C(Nc1ccc(Br)c2ccccc12)C(c1ccc(-c2ccccc2)cc1)S(=O)(=O)O (stereo not drawn) [Compound L319-16-M47]
IC50 ([3]; […], LMWPTP): 37 µM
IC50 [4]: 22 µM
IC50 ([1]; […], SHP2): 24 µM
IC50 [2]: 21 µM

O=C(Nc1ccc(OCc2ccccc2)c(Cl)c1)C(c1ccc2ccccc2c1)S(=O)(=O)O (stereo not drawn) [Compound L319-14-M50]
IC50 ([3]; […], LMWPTP): 28.8 µM
IC50 [4]: 23 µM
IC50 ([1]; […], SHP2): 24 µM
IC50 [2]: 25 µM

O=C(Nc1ccc(NC(=O)C(c2ccccc2)S(=O)(=O)O)cc1)C(=O)Nc1ccc(-c2cccs2)cc1 (stereo not drawn) [Compound L319-20-M74]
IC50 ([1]; pNPP at Km, pH 7.0, 25° C.): 0.9 µM

COc1ccc(CNC(=O)C(Br)(c2ccccc2)S(=O)(=O)O)c(OC)c1 (stereo not drawn) [Compound L319-Br1-N76]
IC50 ([1]; […], SHP2): 9.9 µM
IC50 [2]: 21.7 µM

O=C(Nc1ccc(NC(=O)C(c2ccccc2)S(=O)(=O)O)cc1)C(=O)Nc1ccc(-c2ccccc2)cc1 (stereo not drawn) [Compound L319-20-N08]
IC50 ([1]; pNPP at Km, pH 7.0, 25° C.): 1.4 µM

O=C(Nc1ccc(N2CCOCC2)cc1)C(c1ccccc1Cl)S(=O)(=O)O (stereo not drawn) [Compound L319-07-M68]
IC50 ([3]; […], LMWPTP): > 100 µM
IC50 [4]: > 100 µM
IC50 ([1]; […], SHP2): > 100 µM
IC50 [2]: 11 µM

O=C(NNc1ccccc1)C(c1ccc([N+](=O)[O-])cc1)S(=O)(=O)O (stereo not drawn) [Compound L319-08-N58]
IC50 ([3]; […], LMWPTP): 11 µM
IC50 [4]: 9.9 µM
IC50 ([1]; […], SHP2): 7.28 µM
IC50 [2]: 16 µM

O=C(C(c1ccc(-c2ccccc2)cc1)S(=O)(=O)O)N1CCc2cc(Br)ccc21 (stereo not drawn) [Compound L319-16-M93]
IC50 ([3]; […], LMWPTP): 24 µM
IC50 [4]: 16 µM
IC50 ([1]; […], SHP2): 16 µM
IC50 [2]: 7.6 µM

O=C(CP(=O)(O)O)Nc1nc2ccccc2s1 [Compound L338N15]
IC50 ([3]; pNPP at Km, pH 7.0, 25° C.): 30 µM

O=C(NCc1ccc(NC(=O)C(c2ccccc2)S(=O)(=O)O)cc1)C(=O)Nc1ccc(-c2cccs2)cc1 (stereo not drawn) [Compound L319-23-M74]
IC50 ([1]; pNPP at Km, pH 7.0, 25° C.): 3.5 µM

CC1(C)S[C@@H]2[C@H](NC(=O)C(c3ccccc3)S(=O)(=O)O)C(=O)N2[C@H]1C(=O)O (stereo partly drawn) [sulbenicillin, reference compound]
Inhibition of SHP2 at 200 μM ([1]; 200 μM compound concentration): no activity

O=C(Nc1nc2cc(Cl)ccc2o1)C(c1ccc(-c2ccccc2)cc1)S(=O)(=O)O (stereo not drawn) [Compound L319-16-M60]
IC50 ([3]; […], LMWPTP): 18 µM
IC50 [4]: 15 µM
IC50 ([1]; […], SHP2): 12 µM
IC50 [2]: 13 µM

O=C(O)C(=O)Nc1ccc(NC(=O)C(c2ccccc2)S(=O)(=O)O)cc1 (stereo not drawn) [Lib-1, 2-oxo-2-((4-(2-phenyl-2-sulfoacetamido)phenyl)amino)acetic acid]
IC50 [1, 5]: > 50 µM

O=C(NC1=NN=C(c2ccc(Br)cc2)C1)C(=O)Nc1ccc(NC(=O)C(c2ccccc2)S(=O)(=O)O)cc1 (stereo not drawn) [Compound L319-20-M78]
IC50 ([1]; pNPP at Km, pH 7.0, 25° C.): 0.7 µM

O=C(Nc1ccc(N2CCOCC2)cc1)C(c1ccc2ccccc2c1)S(=O)(=O)O (stereo not drawn) [Compound L319-14-M68]
IC50 ([3]; […], LMWPTP): > 100 µM
IC50 [4]: 8.3 µM
IC50 ([1]; […], SHP2): > 100 µM
IC50 [2]: 4.5 µM

O=C(O)C(=O)NCc1ccc(NC(=O)C(c2ccccc2)S(=O)(=O)O)cc1 (stereo not drawn) [Lib-3, 2-oxo-2-((4-(2-phenyl-2-sulfoacetamido)benzyl)amino)acetic acid]
IC50 [1, 5]: > 50 µM

Cc1ccc(C(C(=O)Nc2ccc(N3CCOCC3)cc2)S(=O)(=O)O)cc1 (stereo not drawn) [Compound L319-11-M68]
IC50 ([3]; […], LMWPTP): > 100 µM
IC50 [4]: 7.6 µM
IC50 ([1]; […], SHP2): > 100 µM
IC50 [2]: 3.2 µM

O=C(O)C(c1ccc(-c2ccccc2)cc1)S(=O)(=O)O (stereo not drawn) [Compound L319-16]
IC50 ([3]; […], LMWPTP): > 100 µM
IC50 [4]: 5.19 µM
IC50 ([1]; […], SHP2): 25 µM
IC50 [2]: 11 µM

O=C(Nc1ccc(N2CCOCC2)cc1)C(c1ccc(Br)cc1)S(=O)(=O)O (stereo not drawn) [Compound L319-12-M68]
IC50 ([3]; […], LMWPTP): 21 µM
IC50 [4]: 7.43 µM
IC50 ([1]; […], SHP2): > 100 µM
IC50 [2]: 3.9 µM

O=C(Nc1cccc(NC(=O)C(c2ccccc2)S(=O)(=O)O)c1)C(=O)Nc1ccc(OCc2ccccc2)c(Cl)c1 (stereo not drawn) [Compound L319-22-M50]
IC50 ([1]; pNPP at Km, pH 7.0, 25° C.): 7.5 µM

O=C(Nc1ccc(N2CCOCC2)cc1)C(c1ccccc1F)S(=O)(=O)O (stereo not drawn) [Compound L319-06-M68]
IC50 ([3]; […], LMWPTP): > 100 µM
IC50 [4]: > 100 µM
IC50 ([1]; […], SHP2): > 100 µM
IC50 [2]: 22 µM

O=C(Nc1cccc(Cc2ccccc2)c1)C(=O)Nc1cccc(NC(=O)C(c2ccccc2)S(=O)(=O)O)c1 (stereo not drawn) [Compound L319-22-M51]
IC50 ([1]; pNPP at Km, pH 7.0, 25° C.): 10 µM

O=C(Nc1ccc(I)cc1)C(=O)Nc1ccc(NC(=O)C(c2ccccc2)S(=O)(=O)O)cc1 (stereo not drawn) [Compound L319-20-M24]
IC50 ([1]; pNPP at Km, pH 7.0, 25° C.): 1.5 µM

CC(C)c1ccc(NC(=O)C(=O)Nc2ccc(NC(=O)C(c3ccccc3)S(=O)(=O)O)cc2)cc1 (stereo not drawn) [Compound L319-20-N25]
IC50 ([1]; pNPP at Km, pH 7.0, 25° C.): 2.3 µM
